Patent publication EP2041131B1, “AZAINDOLE DERIVATIVES WITH A COMBINATION OF PARTIAL NICOTINIC ACETYLCHOLINE RECEPTOR AGONISM AND DOPAMINE REUPTAKE INHIBITION” (Abbott Healthcare Products B.V., priority 2006, dated 2008)
Read-outs that look alike come from different tables or passages of the source.

Tests used:
[1] = system: rat striatal slices; test: In vitro [^3H]-Dopamine release; type: cell-based
[2] = biological target: T1, dopamine uptake sites (Rattus norvegicus, UniProt P23977); test: In vitro [^3H]-Dopamine uptake in striatal synaptosomes; type: biochemical
T1 construct: the striatum was rapidly removed and a crude synaptosomal fraction (P2) was prepared; from tissue; host or cells: rat striatum, crude synaptosomal fraction (P2)
T1 sequence (P23977 whole entry): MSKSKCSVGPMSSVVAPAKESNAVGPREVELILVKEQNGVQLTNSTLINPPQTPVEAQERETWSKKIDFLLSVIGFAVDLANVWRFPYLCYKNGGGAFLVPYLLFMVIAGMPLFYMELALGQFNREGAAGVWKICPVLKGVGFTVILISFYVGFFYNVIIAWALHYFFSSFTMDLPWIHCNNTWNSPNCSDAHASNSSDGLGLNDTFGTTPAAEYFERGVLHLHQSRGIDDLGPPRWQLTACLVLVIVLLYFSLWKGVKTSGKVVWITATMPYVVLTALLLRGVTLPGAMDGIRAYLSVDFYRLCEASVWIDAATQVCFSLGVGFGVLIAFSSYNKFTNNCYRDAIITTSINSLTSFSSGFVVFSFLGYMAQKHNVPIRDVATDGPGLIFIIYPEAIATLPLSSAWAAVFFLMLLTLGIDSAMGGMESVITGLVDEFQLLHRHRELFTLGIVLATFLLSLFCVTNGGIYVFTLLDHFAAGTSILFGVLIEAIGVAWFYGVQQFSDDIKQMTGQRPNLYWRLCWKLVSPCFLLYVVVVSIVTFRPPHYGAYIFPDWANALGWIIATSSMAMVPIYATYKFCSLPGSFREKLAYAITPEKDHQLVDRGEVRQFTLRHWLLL
Experimental: Subsequently, [^3H]-dopamine (2x10^-7 M final concentration) was added and incubation was continued for 10 min. [^3H]-dopamine uptake was stopped by filtration and the synaptosomes were washed four times with phosphate buffered saline. The amount of [^3H]-dopamine in the synaptosomes was determined by Betaplate liquid scintillation counting. […] Inhibition of DA uptake was performed in duplicate.

[3] = rat striatal synaptosomes, 10^-9 to 10^-5 M, read-out: Functional activity re-uptake [^3H]-Dopamine pIC50 (converted)
[4] = K+ (10 mM) evoked release, rat striatal slices, compounds added at 10^-8 M and 10^-6 M, table does not say which concentration

Row | Compound | Functional activity release [^3H]-Dopamine % of control [1] | IC50 [2, 3] | Functional activity release [^3H]-Dopamine % of control [1, 4] | IC50 [2]
1 | c1cnc2[nH]cc(C[C@H]3CCCN3)c2c1 (stereo in doubt) [Compound 96, (R)-3-pyrrolidin-2-ylmethyl-1H-pyrrolo-[2,3-b]pyridine, reference compound] | 124 % of control | – | – | –
2 | CN1CCC[C@@H]1Cc1c[nH]c2ncccc12 (stereo in doubt) [Compound 98, reference compound] | – | > 10 µM | 132 % of control | –
3 | CN1CCC[C@H]1Cc1c[nH]c2ncccc12 (stereo in doubt) [Compound 99, reference compound] | – | – | 112 % of control | –
4 | c1cnc2[nH]cc(C3CCCNC3)c2c1 (centres unmarked) [Compound 6, 3-piperidin-3-yl-1 H-pyrrolo[2,3-b]pyridine] | – | – | 139 % of control | 3.98 µM
5 | Clc1ccc2c(C3CCCNC3)c[nH]c2n1 (centres unmarked) [Compound 13, 6-chloro-3-piperidin-3-yl-1 H-pyrrolo[2,3-b]pyridine] | – | 1.58 µM | 174 % of control | –
6 | c1cnc2[nH]c([C@H]3CCCNC3)cc2c1 [Compound 26A, (S)-2-piperidin-3-yl-1H-pyrrolo[2,3-b]pyridine] | – | 2.51 µM | 139 % of control | –
7 | c1cnc2[nH]c([C@@H]3CCCNC3)cc2c1 [Compound 26B, (R)-2-piperidin-3-yl-1H-pyrrolo[2,3-b]pyridine] | – | – | 121 % of control | 0.631 µM
8 | Clc1ccc2cc(C3CCCNC3)[nH]c2n1 (centres unmarked) [Compound 32, 6-chloro-2-piperidin-3-yl-1H-pyrrolo[2,3-b]pyridine] | – | – | 173 % of control | –
9 | Clc1ccc2cc([C@@H]3CCCNC3)[nH]c2n1 [Compound 32B, (R)-6-chloro-2-piperidin-3-yl-1H-pyrrolo[2,3-b]pyridine] | – | – | 170 % of control | 0.398 µM
10 | c1cnc2[nH]c(C[C@H]3CCCN3)cc2c1 [Compound 39A, (R)-2-pyrrolidin-2-ylmethyl-1H-pyrrolo[2,3-b]pyridine] | 151 % of control | – | – | –
11 | c1cnc2[nH]c(C[C@@H]3CCCN3)cc2c1 [Compound 39B, (S)-2-pyrrolidin-2-ylmethyl-1H-pyrrolo[2,3-b]pyridine] | – | – | 133 % of control | –
12 | CN1CCC[C@@H]1Cc1cc2cccnc2[nH]1 [Compound 41A, (R)-2-(1-Methyl-pyrrolidin-2-ylmethyl)-1H-pyrrolo[2,3-b]pyridine] | – | – | 100 % of control | –
13 | Clc1ccc2cc(C[C@H]3CCCN3)[nH]c2n1 [Compound 45A, (R)-6-chloro-2-pyrrolidin-2-ylmethyl-1H-pyrrolo[2,3-b]pyridine] | – | – | 115 % of control | –
14 | Clc1ccc2cc(C[C@@H]3CCCN3)[nH]c2n1 [Compound 45B, (S)-6-chloro-2-pyrrolidin-2-ylmethyl-1H-pyrrolo[2,3-b]pyridine] | – | 2.51 µM | 153 % of control | –
15 | Brc1ccc2cc(C[C@H]3CCCN3)[nH]c2n1 [Compound 46A, (R)-6-bromo-2-pyrrolidin-2-ylmethyl-1H-pyrrolo[2,3-b]pyridine] | – | – | 92 % of control | –
16 | Brc1ccc2cc(C[C@@H]3CCCN3)[nH]c2n1 [Compound 46B, (S)-6-bromo-2-pyrrolidin-2-ylmethyl-1H-pyrrolo[2,3-b]pyridine] | – | – | 123 % of control | –

Row | Compound | Functional activity release [^3H]-Dopamine % of control [1] | IC50 [2, 3] | Functional activity release [^3H]-Dopamine % of control [1, 4] | IC50 [2]
17 | Fc1ccc2cc(C[C@H]3CCCN3)[nH]c2n1 [Compound 47A, (R)-6-fluoro-2-pyrrolidin-2-ylmethyl-1H-pyrrolo[2,3-b]pyridine] | – | – | 137 % of control | –
18 | Fc1ccc2cc(C[C@@H]3CCCN3)[nH]c2n1 [Compound 47B, (S)-6-fluoro-2-pyrrolidin-2-ylmethyl-1H-pyrrolo[2,3-b]pyridine] | – | 3.98 µM | 128 % of control | –
19 | COc1ccc2cc(C[C@H]3CCCN3)[nH]c2n1 [Compound 49, (R)-6-methoxy-2-pyrrolidin-2-ylmethyl-1H-pyrrolo[2,3-b]pyridine] | 160 % of control | – | – | –
20 | Brc1cnc2[nH]c(C[C@H]3CCCN3)cc2c1 [Compound 52A, (R)-5-bromo-2-pyrrolidin-2-ylmethyl-1H-pyrrolo[2,3-b]pyridine] | 135 % of control | – | – | –
21 | c1cnc2[nH]c(C3CCNC3)cc2c1 (centres unmarked) [Compound 78, 2-pyrrolidin-3-yl-1H-pyrrolo[2,3-b]pyridine] | – | 2 µM | 154 % of control | –
22 | c1cnc2[nH]c([C@H]3CCNC3)cc2c1 [Compound 78A, (S)-2-pyrrolidin-3-yl-1H-pyrrolo[2,3-b]pyridine] | – | 3.98 µM | 109 % of control | –
23 | c1cnc2[nH]c([C@@H]3CCNC3)cc2c1 [Compound 78B, (R)-2-pyrrolidin-3-yl-1H-pyrrolo[2,3-b]pyridine] | – | 1.58 µM | 187 % of control | –
24 | c1cnc2cc(C3CCNC3)[nH]c2c1 (centres unmarked) [Compound 79, 2-pyrrolidin-3-yl-1H-pyrrolo[3,2-b]pyridine] | – | 6.31 µM | 119 % of control | –
25 | c1cnc2cc(C[C@H]3CCCN3)[nH]c2c1 [Compound 81A, (R)-2-pyrrolidin-2-ylmethyl-1H-pyrrolo[3,2-b]pyridine] | 153 % of control | – | – | –
26 | c1cnc2cc(C[C@@H]3CCCN3)[nH]c2c1 [Compound 81B, (S)-2-pyrrolidin-2-ylmethyl-1H-pyrrolo[3,2-b]pyridine] | 120 % of control | – | – | –
27 | COc1ccc2[nH]c(C[C@H]3CCCN3)cc2n1 [Compound 85, (R)-5-methoxy-2-pyrrolidin-2-ylmethyl-1H-pyrrolo[3,2-b]pyridine] | 131 % of control | – | – | –
28 | c1cnc2c(C[C@H]3CCCN3)c[nH]c2c1 [Compound 88, (R)-3-pyrrolidin-2-ylmethyl-1H-pyrrolo[3,2-b]pyridine] | – | 7.94 µM | 110 % of control | –
29 | CC(NC(C)(C)C)C(=O)c1cccc(Cl)c1 (centres unmarked) [bupropion, reference compound] | – | 3.98 µM | 124 % of control | –
30 | O=c1cccc2n1C[C@@H]1CNC[C@H]2C1 [cytisine, reference compound] | – | – | 136 % of control | > 10 µM
31 | CN1CCCC1c1cccnc1 (centres unmarked) [nicotine, reference compound] | – | – | 180 % of control | > 10 µM
